Measurements reported in patent publication US9363996B2, “Compositions and method for blocking ethylene response in field crops using 3-(cy-clopropyl-l-enyl)-propanoic salt” (Yissum Research Development Company of the Hebrew …, priority 2009, dated 2016).

What was measured:
young cotton seedlings = experiment: Ethylene-induced leaf epinasty of young cotton seedlings; type: in vivo, cotton (Gossyium hirsutum barbadense L.)
Description: (1) Abscission-This is a very sensitive model system for studying the effects of plant hormones. Ethylene induces the process of abscission, while auxin delays it. In the laboratory the experimental system is based on plant organ explants, which include the abscission zone. Abscission is induced by exposure to ethylene and at the termination of the experiment the number of abscised organs, usually either leaf blades or petioles are counted and the fraction of abscission is calculated. In the case of fruit, the decrease in fruit retention force is analyzed. […] The plants or explants are then further exposed for 24 h to ethylene gas (5 to 20 μL L^-1). The plants or explants are then ventilated and incubated for the required time under controlled conditions. At the end of the experiment the percentage of abscission is determined. […] Plant material (whole plants, excised leaves or leaf discs) are pretreated. […] The plants or explants are then ventilated and incubated for the required time under controlled conditions. At the end of the experiment a dimethylsulfoxide (DMSO) extract of the plant tissue is prepared, and the chlorophyll content of the extract is determined by spectrophotometric analysis. […] The extent of ethylene-induced epinasty of leaves is determined by measuring the change of the angle between the petiole and the stem shoot or blade. […]

Winter wheat = experiment: Field experiment in wheat: seed yield and seed weight; type: in vivo, Winter wheat (Ttriticum aestivum, var. Galil); details: for yield increase over the control, hand-separated: g/100 spikes; for seed yield increase compared to the untreated control, mechanically thresh separated: g/plot
Source text: Plant material and experimental design—Winter wheat (Ttriticum aestivum, var. Galil) was sown in December 2008 in a medium-heavy soil in the farm of the Volcani Center, Agricultural Research Organization, Bet-Dagan, Israel. Winter rainfall between October and March was 515 mm. The crop was raised without irrigation. The plants were sprayed twice with insecticide in November with ‘Tunex’ (one L/acre) and in December with ‘Oror Turbo’ (200 g/acre). The experiment started in mid-March, 2009. Six blocks were randomly selected, and each block was further randomly divided into four treatment plots of two square meters each (FIG. 67A—right and left). Two-meter-wide strips of untreated plants served as border lines between the blocks (FIG. 67A—center). The following treatments were applied: 1. control; 2. spraying WS-CPD at the ‘Milky’ stage I (30.3.09); 3. spraying WS-CPD at the ‘Milky’ stage II (17.4.09); 4. two successive WS-CPD sprays as above (30.3.09 and 17.4.09).
Treatments—The treatment solution of WS-CPD contained 120 μg mL^−1 of WS-CPD in 10 mM K-phosphate buffer (pH 7.6) and 0.1% of ‘Kinetic’ surfactant. Spraying (about 0.8 L/two square meters) was applied with a portable sprayer (ACL 7-L, Great Brittan). The controls were sprayed with the treatment solution without WS-CPD. The spraying was aimed to cover the upper part of the plants, from the second leaf below the ‘Flag leaf’ and up, covering the whole spike.
Determination of seed development—In order to follow the dynamics of seed development from ‘Milky’ stage I to seed maturity, groups of 200 spikes were sampled from the border strips. Samples were taken on 30.3.09 (‘Milky’ stage I), 17.4.09 (‘Milky’ stage II), and 19.5.09 (seed maturity). The spikes were brought to the laboratory and dried in an oven (60° C.) until complete dryness. After drying, the seeds were separated from each spike, counted, and their weight was recorded to determine the average seed weight for each spike. The number of spikes with the same average seed weight of each treatment was expressed as percent of total spike number.
Harvesting—At the termination of the experiment (19.5.09), when the seeds reached full maturity, the spikes from all six blocks were harvested, counted, and placed on tables in the greenhouse for 12 days to reach complete dryness (FIG. 67B).
Hand seed separation—One hundred dried spikes were randomly sampled of each plot (n=6) after harvesting. The seeds of each spike were separated (FIGS. 67C and D) and counted and their weight was determined. The seed weight of each spike was divided by the number of seeds per spike to determine the average seed weight of each spike. The number of spikes of each treatment with the same average seed weight was expressed as percent of total spike number.
Mechanical thresh seed separation—The remaining dry spikes of each experimental plot were counted and mechanically thresh separated (Kurt Pelz Co., Germany) from their glumes and chafes, and their dry weight was recorded (g/plot). For comparison of the yield weight of the controls between mechanical thresh and hand separation, 200 seeds from each method were randomly sampled.
Effect of WS-CPD on Yield—This effect of WS-CPD was studied by two ways: a) calculating the yield of each experimental plot (g/plot) and; b) calculating the yield dry weight of 100 spikes randomly selected in each experimental plot (g/100 spikes).

[1] = WS-CPD 120 μg mL^−1 spray at 'Milky' stage I
[2] = WS-CPD 120 μg mL^−1 spray at 'Milky' stage II

Compound: O=C([O-])CCC1=CC1.[Na+] [WS-CPD, 3-cyclopropyl-1-enyl-propanoic sodium salt]
- ethylene-induced leaf epinasty (young cotton seedlings; WS-CPD 10 and 30 μg mL^−1, ethylene 10 μL L^−1): completely reversed
- ethylene-induced epinasty (young cotton seedlings; WS-CPD spray 10 to 300 μg mL^−1, 24 h later ethylene 10 μL L^−1 for 24 h, three-week-old seedlings): completely antagonized
- yield increase over the control, hand-separated (Winter wheat; [1]): about 15±2.6%
- seed yield increase compared to the untreated control, mechanically thresh separated (Winter wheat; [1]): about 5%
- yield increase over the control, hand-separated (Winter wheat; [2]): about 8%
- seed yield increase compared to the untreated control, mechanically thresh separated (Winter wheat; [2]): ~8%
- increase of seed weight (Winter wheat; one spray at 'Milky' stage I, hand-separated, mg/seed): about 15%
- distribution of seed weight at maturity versus control spikes (Winter wheat; sprayed at 'Milky' stage I, II or both): always significantly heavier
- yield, hand-separated (Winter wheat; spraying twice at 'Milky' stages I+II versus one spray at stage I): no advantage
- seed yield, mechanically thresh separated (Winter wheat; spraying twice at 'Milky' stages I+II versus spraying once): no advantage
